Results published in ChEMBL document CHEMBL1159150, “Synthesis and anticonvulsant properties of BW A78U structurally-related compounds” (1995).
Activity calls are given as the source filed them. The rule behind the calls is not given here.

Key:
[1] = test system: Rattus norvegicus; test: Anticonvulsant activity for tonic seizure by ip administration at a dose of 10 mg/kg; type: functional; details: route intraperitoneal, read-out: ID50 (the source's name)
[2] = test system: Rattus norvegicus; test: Percent of rats protected from tonic seizure by ip administration at a dose of 10 mg/kg for anticonvulsant activity; type: functional; details: route intraperitoneal
[3] = test system: Rattus norvegicus; test: Percent of rats protected from tonic seizure by ip administration at a dose of 40 mg/kg for anticonvulsant activity; type: functional; details: route intraperitoneal
[4] = test system: Rattus norvegicus; test: Anticonvulsant activity for tonic seizure by ip administration at a dose of 10 mg/kg; Inactive; type: functional, organism-based; design: dose 10 mg/kg

| Compound | ED50 [1] [mg/kg] | Protection [2] [%] | Protection [3] [%] | ID50 [4] |
| --- | --- | --- | --- | --- |
| CNc1ncn(Cc2ccccc2F)c2ncnc1-2 | 10 | 50 | 100 | – |
| Cc1nc(C(N)=O)c(CCc2ccccc2)s1 | – | 30 | 65 | – |
| CNc1ncnc2c1ncn2Cc1ccccc1F [BW-A78U] | 4 | 100 | – | – |
| CNC(=O)c1cn(Cc2ccccc2)cn1 | – | 20 | 90 | – |
| CNc1nccn2c(Cc3ccccc3)nnc12 | – | 65 | 100 | – |
| NC(=O)c1cc(Cc2ccccc2)ccn1 | – | 50 | 100 | – |
| Cc1nc(CCc2ccccc2)c(C(N)=O)nc1C | – | 0 | 30 | – |
| CNc1ncnc2c1cnn2Cc1ccccc1F | – | 0 | 65 | inactive |
| CNc1cc(N(Cc2ccccc2)C(C)=O)ncn1 | – | 20 | 55 | – |
